This passage reports DC50 and Dmax results from patent US20260317324A1, “BIFUNCTIONAL COMPOUNDS FOR DEGRADING BRAF VIA UBIQUITIN PROTEOSOME PATHWAY” (Nurix Therapeutics, Inc., priority 2023, published 2026).

The assay has as its target T1, BRAF V600E (Homo sapiens, UniProt P15056, V600E).
T1 construct: endogenous C-terminal HiBiT fusion tag on BRAF V600E allele; endogenous in cells; host or cells: A375 clone 1F10 (CRISPR-Cas9 knock-in of the HiBiT tag; parental A375 from ATCC)
Briefly: BRAF HiBiT degradation assay, C-terminal HiBiT-tagged BRAF V600E A375 cells (clone 1F10), Nano-Glo HiBiT Lytic assay. In kind it is cell-based. As to conditions: for Dmax: A-375. In short, it runs like this:
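Luminescence read-out: Nano-Glo HiBiT lytic reagent with LgBiT, 10 min at room temperature. Signal normalised to DMSO-treated tagged cells, with wildtype A375 as background. Cells are endogenously tagged BRAF V600E A375 clone 1F10. Compounds were tested from 1 μM to 0.01 nM; Dmax is observed % degraded at maximal effect.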

The mark [1] stands for this setting: A375 (BRAF V600E), DC50 at 50%: fitted conc. at Y=50.
[2] abbreviates: A375 (BRAF V600E), percentage protein degraded at maximal compound effect relative to DMSO.

T1 sequence (P15056 whole entry V600E, the tested form may be a part): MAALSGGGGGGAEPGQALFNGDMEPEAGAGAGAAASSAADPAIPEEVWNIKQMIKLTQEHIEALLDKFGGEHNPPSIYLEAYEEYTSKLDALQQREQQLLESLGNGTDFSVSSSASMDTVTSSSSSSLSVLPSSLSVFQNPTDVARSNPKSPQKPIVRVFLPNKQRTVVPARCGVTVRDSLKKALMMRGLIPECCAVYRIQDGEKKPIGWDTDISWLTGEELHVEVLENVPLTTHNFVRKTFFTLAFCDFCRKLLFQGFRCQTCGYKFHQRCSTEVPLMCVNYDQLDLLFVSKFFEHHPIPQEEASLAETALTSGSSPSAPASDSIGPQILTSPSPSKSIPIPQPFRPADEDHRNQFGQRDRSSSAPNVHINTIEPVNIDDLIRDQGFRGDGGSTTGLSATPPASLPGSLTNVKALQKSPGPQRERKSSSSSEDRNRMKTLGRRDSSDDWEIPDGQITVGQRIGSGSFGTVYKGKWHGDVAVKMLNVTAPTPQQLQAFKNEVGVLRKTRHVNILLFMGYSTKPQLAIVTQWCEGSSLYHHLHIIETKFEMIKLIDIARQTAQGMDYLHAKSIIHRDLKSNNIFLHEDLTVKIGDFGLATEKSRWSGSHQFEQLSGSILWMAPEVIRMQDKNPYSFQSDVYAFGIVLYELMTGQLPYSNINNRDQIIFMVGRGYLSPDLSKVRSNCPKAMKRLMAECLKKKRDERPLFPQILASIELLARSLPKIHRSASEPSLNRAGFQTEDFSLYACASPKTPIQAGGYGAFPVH

`CCCS(=O)(=O)Nc1cccc(-c2nc(C(C)(C)C)sc2-c2ccnc(Nc3ccc(C4CCN(C(=O)CN5CCC6(CC5)CN(c5ccc7c(c5)C(=O)N(C5CCC(=O)NC5=O)C7=O)C6)CC4)cc3)n2)c1F` (racemic) [Compound 153, Rac-N-[3-(2-tert-butyl-5-{2-[(4-{1-[2-(2-{2-[(3R)-2,6-dioxopiperidin-3-yl]-1,3-dioxo-2,3-dihydro-1H-isoindol-5-yl}-2,7-diazaspiro[3.5]nonan-7-yl)acetyl]piperidin-4-yl}phenyl)amino]pyrimidin-4-yl}-1,3-thiazol-4-yl)-2-fluorophenyl]propane-1-sulfonamide] had a DC50 under setting [1] of 50 to 500 nM. Under setting [2], this compound returned a Dmax of 30 to 70%.
Take `CCCS(=O)(=O)Nc1cccc(-c2nc(C(C)(C)C)sc2-c2ccnc(Nc3ccc(N4CCN(CC5CCN(c6ccc([C@@H]7CCC(=O)NC7=O)cc6)CC5)CC4)c(F)c3)n2)c1F` [Compound 88, N-[3-(2-tert-butyl-5-{2-[(4-{4-[(1-{4-[(3S)-2,6-dioxopiperidin-3-yl]phenyl}piperidin-4-yl)methyl]piperazin-1-yl}-3-fluorophenyl)amino]pyrimidin-4-yl}-1,3-thiazol-4-yl)-2-fluorophenyl]propane-1-sulfonamide]: the 50% degradation concentration (DC50) under setting [1] fell in the range of 10 to 50 nM. The compound further had a Dmax under setting [2] of 30 to 70%.
On the same counts, the results for `CCCS(=O)(=O)Nc1cccc(-c2nc(C(C)(C)C)sc2-c2ccnc(Nc3cccc(OC4CCN(C(=O)C5CCN(c6cccc(C7CCC(=O)NC7=O)c6)CC5)CC4)c3)n2)c1F` (racemic) [Compound 99, Rac-N-[3-(2-tert-butyl-5-{2-[(3-{[1-(1-{3-[(3R)-2,6-dioxopiperidin-3-yl]phenyl}piperidine-4-carbonyl)piperidin-4-yl]oxy}phenyl)amino]pyrimidin-4-yl}-1,3-thiazol-4-yl)-2-fluorophenyl]propane-1-sulfonamide] are 10 to 50 nM and 30 to 70%.
In the same order, the values of `CCCS(=O)(=O)Nc1cccc(-c2cn(-c3ccc(N4CCN(CC5(C)CCN(c6ccc(C7CCC(=O)NC7=O)cn6)CC5)CC4)cc3)nc2-c2ccncc2)c1F` (racemic) [Compound 17, Rac-N-{3-[1-(4-{4-[(1-{5-[(3R)-2,6-dioxopiperidin-3-yl]pyridin-2-yl}-4-methylpiperidin-4-yl)methyl]piperazin-1-yl}phenyl)-3-(pyridin-4-yl)-1H-pyrazol-4-yl]-2-fluorophenyl}propane-1-sulfonamide] are 50 to 500 nM and 30 to 70%.
For the compound `CCCS(=O)(=O)Nc1cccc(-c2nc(C(C)(C)C)sc2-c2ccnc(Nc3ccc(C4CCN(C(=O)CCCCCc5ccc6c(c5)C(=O)N(C5CCC(=O)NC5=O)C6)CC4)cc3)n2)c1F` (racemic) [Compound 151, Rac-N-(3-{2-tert-butyl-5-[2-({4-[1-(6-{2-[(3R)-2,6-dioxopiperidin-3-yl]-3-oxo-2,3-dihydro-1H-isoindol-5-yl}hexanoyl)piperidin-4-yl]phenyl}amino)pyrimidin-4-yl]-1,3-thiazol-4-yl}-2-fluorophenyl)propane-1-sulfonamide], under setting [1], the DC50 lay in the range of 10 to 50 nM. The compound also displayed a Dmax under setting [2] of 30 to 70%.
For `CCCS(=O)(=O)Nc1cccc(-c2cn(-c3ccc(C(=O)N4CCN(C(=O)CC5CCN(c6ccc(C7CCC(=O)NC7=O)cn6)CC5)CC4)cc3)nc2-c2ccncc2)c1F` (racemic) [Compound 13, Rac-N-{3-[1-(4-{4-[2-(1-{5-[(3R)-2,6-dioxopiperidin-3-yl]pyridin-2-yl}piperidin-4-yl)acetyl]piperazine-1-carbonyl}phenyl)-3-(pyridin-4-yl)-1H-pyrazol-4-yl]-2-fluorophenyl}propane-1-sulfonamide], the DC50 under setting [1] was 10 to 50 nM. Under setting [2], this compound returned a Dmax above 70%.
For `CCCS(=O)(=O)Nc1cccc(-c2nc(C(C)(C)C)sc2-c2ccnc(Nc3ccc(C4CCN(C(=O)C[C@@H]5CCN(c6ccc(C7CCC(=O)NC7=O)cc6)C5)CC4)cc3)n2)c1F` (mixture of isomers) [Compound 166, N-{3-[2-tert-butyl-5-(2-{[4-(1-{2-[(3S)-1-{4-[(3RS)-2,6-dioxopiperidin-3-yl]phenyl}pyrrolidin-3-yl]acetyl}piperidin-4-yl)phenyl]amino}pyrimidin-4-yl)-1,3-thiazol-4-yl]-2-fluorophenyl}propane-1-sulfonamide], under setting [1], the 50% degradation concentration (DC50) lay in the range of 50 to 500 nM. The compound also had a maximal degradation (Dmax) under setting [2] of 30 to 70%.
On the same counts, the results for `CCCS(=O)(=O)Nc1cccc(-c2cn(C3CCN(C(=O)C4CCN(C(=O)C5CCN(c6ccc(C7CCC(=O)NC7=O)cc6)CC5)CC4)CC3)nc2-c2ccncc2)c1F` (racemic) [Compound 9, Rac-N-[3-(1-{1-[1-(1-{4-[(3R)-2,6-dioxopiperidin-3-yl]phenyl}piperidine-4-carbonyl)piperidine-4-carbonyl]piperidin-4-yl}-3-(pyridin-4-yl)-1H-pyrazol-4-yl)-2-fluorophenyl]propane-1-sulfonamide] are 50 to 500 nM and above 70%.
As to `CCCS(=O)(=O)Nc1cccc(-c2nc(C3CCN(CC4CCN(C(=O)[C@H]5CC[C@H](Oc6cccc(C7CCC(=O)NC7=O)c6)CC5)CC4)CC3)sc2-c2ccnc(N)n2)c1F` (mixture of isomers) [Compound 223, N-{3-[5-(2-aminopyrimidin-4-yl)-2-[1-({1-[(1r,4r)-4-{3-[(3RS)-2,6-dioxopiperidin-3-yl]phenoxy}cyclohexanecarbonyl]piperidin-4-yl}methyl)piperidin-4-yl]-1,3-thiazol-4-yl]-2-fluorophenyl}propane-1-sulfonamide], the DC50 under setting [1] was in the range of 50 to 500 nM. Also, the Dmax under setting [2] was in the range of 30 to 70%.
Under setting [1], `CCCS(=O)(=O)Nc1cccc(-c2nc(C(C)(C)C)sc2-c2ccnc(Nc3cnn(C4CCN(C(=O)[C@@H]5CCN(c6ccc(C7CCC(=O)NC7=O)cn6)C5)CC4)c3)n2)c1F` (mixture of isomers) [Compound 106, N-[3-(2-tert-butyl-5-{2-[(1-{1-[(3R)-1-{5-[(3RS)-2,6-dioxopiperidin-3-yl]pyridin-2-yl}pyrrolidine-3-carbonyl]piperidin-4-yl}-1H-pyrazol-4-yl)amino]pyrimidin-4-yl}-1,3-thiazol-4-yl)-2-fluorophenyl]propane-1-sulfonamide] displayed a DC50 of 50 to 500 nM. The same compound had a Dmax under setting [2] of 30 to 70%.
On the same counts, the results for `CCCS(=O)(=O)Nc1cccc(-c2cn(-c3ccc(C(=O)N4CCN(CC5CCN(c6ccc([C@@H]7CCC(=O)NC7=O)cc6)CC5)CC4)cc3)nc2-c2ccncc2)c1F` [Compound 12, N-{3-[1-(4-{4-[(1-{4-[(3S)-2,6-dioxopiperidin-3-yl]phenyl}piperidin-4-yl)methyl]piperazine-1-carbonyl}phenyl)-3-(pyridin-4-yl)-1H-pyrazol-4-yl]-2-fluorophenyl}propane-1-sulfonamide] are 50 to 500 nM and 30 to 70%.
Compound `CCCS(=O)(=O)Nc1cccc(-c2nc(C(C)(C)C)sc2-c2ccnc(Nc3ccc(C4CCN(C(=O)COc5ccc6c(c5)C(=O)N(C5CCC(=O)NC5=O)C6=O)CC4)cc3)n2)c1F` (racemic) [Compound 176, Rac-N-[3-(2-tert-butyl-5-{2-[(4-{1-[2-({2-[(3R)-2,6-dioxopiperidin-3-yl]-1,3-dioxo-2,3-dihydro-1H-isoindol-5-yl}oxy)acetyl]piperidin-4-yl}phenyl)amino]pyrimidin-4-yl}-1,3-thiazol-4-yl)-2-fluorophenyl]propane-1-sulfonamide] yielded a DC50 under setting [1] of 10 to 50 nM. Under setting [2], this compound displayed a Dmax of 30 to 70%.
On to `CCCS(=O)(=O)Nc1cccc(-c2nc(C(C)(C)C)sc2-c2ccnc(Nc3cccc(C4CCN(C(=O)CN5CCc6cc(C7CCC(=O)NC7=O)ccc6C5)CC4)c3)n2)c1F` (racemic) [Compound 104, Rac-N-(3-{2-tert-butyl-5-[2-({3-[1-(2-{6-[(3R)-2,6-dioxopiperidin-3-yl]-1,2,3,4-tetrahydroisoquinolin-2-yl}acetyl)piperidin-4-yl]phenyl}amino)pyrimidin-4-yl]-1,3-thiazol-4-yl}-2-fluorophenyl)propane-1-sulfonamide], for which the DC50 under setting [1] lay in the range of 50 to 500 nM. Further, the maximal degradation (Dmax) under setting [2] was 30 to 70%.
For the compound `CCCS(=O)(=O)Nc1cccc(-c2nc(C(C)(C)C)sc2-c2ccnc(Nc3cccc(C4CCN(C(=O)[C@@H]5CCN(c6ccc(C7CCC(=O)NC7=O)cn6)C5)CC4)c3)n2)c1F` (mixture of isomers) [Compound 102, N-[3-(2-tert-butyl-5-{2-[(3-{1-[(3R)-1-{5-[(3RS)-2,6-dioxopiperidin-3-yl]pyridin-2-yl}pyrrolidine-3-carbonyl]piperidin-4-yl}phenyl)amino]pyrimidin-4-yl}-1,3-thiazol-4-yl)-2-fluorophenyl]propane-1-sulfonamide], under setting [1], the DC50 was 10 to 50 nM. The maximal degradation (Dmax) under setting [2] lay within 30 to 70%.
On the same counts, the results for `CCCS(=O)(=O)Nc1cccc(-c2nc(C3CCN(C(=O)C4CCN(C(=O)C5CCN(c6ccc(C7CCC(=O)NC7=O)cc6)CC5)CC4)CC3)sc2-c2ccncn2)c1F` (racemic) [Compound 199, Rac-N-[3-(2-{1-[1-(1-{4-[(3R)-2,6-dioxopiperidin-3-yl]phenyl}piperidine-4-carbonyl)piperidine-4-carbonyl]piperidin-4-yl}-5-(pyrimidin-4-yl)-1,3-thiazol-4-yl)-2-fluorophenyl]propane-1-sulfonamide] are below 10 nM and above 70%.
Regarding `O=C1CC[C@H](c2ccc(N3CCC(CN4CCN(c5cnc(-n6cc(-c7cc(F)cc(NS(=O)(=O)N8CCCC8)c7F)c(-c7ccncc7)n6)nc5)CC4)CC3)cc2)C(=O)N1` [Compound 342, N-{3-[1-(5-{4-[(1-{4-[(3R)-2,6-dioxopiperidin-3-yl]phenyl}piperidin-4-yl)methyl]piperazin-1-yl}pyrimidin-2-yl)-3-(pyridin-4-yl)-1H-pyrazol-4-yl]-2,5-difluorophenyl}pyrrolidine-1-sulfonamide], under “A375 (BRAF V600E, Class 1), DC50 at 50% degradation”, the DC50 is below 10 nM. The Dmax (A375 (BRAF V600E, Class 1), observed Dmax, % protein degraded relative to DMSO control) is above 70%.

Usually DC50 stands for the concentration giving 50% degradation. Read a high DC50 as a less potent degrader. By Dmax is commonly meant the greatest extent of degradation seen. Read a high Dmax as a fuller loss of target.
